Test results published in ChEMBL document CHEMBL5465560, “Selectivity Literature for EUbOPEN Chemogenomic Library” (2024).
One block for each molecule: values may come before it.

Legend:
[1] = molecular target: T1, Serine/threonine-protein kinase Nek11 (Homo sapiens) (UniProt Q8NG66); experiment: Selectivity interaction (KinomeScan (DiscoverX)) EUB0000655a NEK11; conditions: at 10 µM
T1 sequence (whole entry): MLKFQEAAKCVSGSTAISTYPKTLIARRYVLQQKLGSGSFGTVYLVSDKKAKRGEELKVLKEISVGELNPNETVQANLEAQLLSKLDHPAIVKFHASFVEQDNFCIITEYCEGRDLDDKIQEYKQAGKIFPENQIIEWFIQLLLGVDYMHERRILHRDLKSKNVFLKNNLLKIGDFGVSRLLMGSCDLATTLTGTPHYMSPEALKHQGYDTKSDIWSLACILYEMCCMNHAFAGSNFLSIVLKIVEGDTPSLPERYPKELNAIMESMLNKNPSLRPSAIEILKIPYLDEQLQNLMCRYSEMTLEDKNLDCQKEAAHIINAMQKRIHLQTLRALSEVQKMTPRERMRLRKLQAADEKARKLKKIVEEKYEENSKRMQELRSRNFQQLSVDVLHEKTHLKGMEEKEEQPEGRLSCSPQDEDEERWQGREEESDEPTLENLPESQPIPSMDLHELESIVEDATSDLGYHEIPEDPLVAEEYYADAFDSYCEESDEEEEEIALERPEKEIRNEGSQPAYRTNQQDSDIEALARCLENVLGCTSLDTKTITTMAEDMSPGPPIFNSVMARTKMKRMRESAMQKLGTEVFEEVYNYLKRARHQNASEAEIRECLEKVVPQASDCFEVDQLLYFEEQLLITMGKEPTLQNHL

[2] = molecular target: T2, Serine/threonine-protein kinase greatwall (Homo sapiens) (UniProt Q96GX5); experiment: Selectivity interaction (ActivX KiNativ screen (kinase selectivity in THP-1 cell lysates)) EUB0000639a MASTL; format: subcellular; conditions: lysate
T2 sequence (whole entry): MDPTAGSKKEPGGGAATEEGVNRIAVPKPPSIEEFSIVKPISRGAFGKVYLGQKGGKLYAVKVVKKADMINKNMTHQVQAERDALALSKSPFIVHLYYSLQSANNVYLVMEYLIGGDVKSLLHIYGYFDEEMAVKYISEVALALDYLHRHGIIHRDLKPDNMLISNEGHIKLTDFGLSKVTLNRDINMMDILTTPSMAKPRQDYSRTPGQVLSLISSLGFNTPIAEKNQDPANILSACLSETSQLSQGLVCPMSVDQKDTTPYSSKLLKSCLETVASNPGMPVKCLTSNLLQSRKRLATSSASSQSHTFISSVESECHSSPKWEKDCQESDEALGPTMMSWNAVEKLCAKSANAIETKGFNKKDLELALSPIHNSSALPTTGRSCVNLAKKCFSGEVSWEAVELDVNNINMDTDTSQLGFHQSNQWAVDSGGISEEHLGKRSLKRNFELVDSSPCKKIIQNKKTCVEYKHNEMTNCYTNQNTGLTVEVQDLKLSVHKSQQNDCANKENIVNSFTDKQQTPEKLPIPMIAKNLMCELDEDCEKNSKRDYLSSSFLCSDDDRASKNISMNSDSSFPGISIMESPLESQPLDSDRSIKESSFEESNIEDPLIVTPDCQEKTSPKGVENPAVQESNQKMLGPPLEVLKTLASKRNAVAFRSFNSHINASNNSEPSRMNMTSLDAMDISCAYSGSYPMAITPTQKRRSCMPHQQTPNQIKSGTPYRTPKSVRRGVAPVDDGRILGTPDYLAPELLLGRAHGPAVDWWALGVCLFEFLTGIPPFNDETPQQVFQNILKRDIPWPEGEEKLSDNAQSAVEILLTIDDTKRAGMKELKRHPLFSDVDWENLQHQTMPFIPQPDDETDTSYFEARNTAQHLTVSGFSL

[3] = molecular target: T3, Serine/threonine-protein kinase D3 (Homo sapiens) (UniProt O94806); experiment: Selectivity interaction (KinomeScan (DiscoverX)) EUB0001049a PRKD3; conditions: at 1 µM
T3 sequence (whole entry): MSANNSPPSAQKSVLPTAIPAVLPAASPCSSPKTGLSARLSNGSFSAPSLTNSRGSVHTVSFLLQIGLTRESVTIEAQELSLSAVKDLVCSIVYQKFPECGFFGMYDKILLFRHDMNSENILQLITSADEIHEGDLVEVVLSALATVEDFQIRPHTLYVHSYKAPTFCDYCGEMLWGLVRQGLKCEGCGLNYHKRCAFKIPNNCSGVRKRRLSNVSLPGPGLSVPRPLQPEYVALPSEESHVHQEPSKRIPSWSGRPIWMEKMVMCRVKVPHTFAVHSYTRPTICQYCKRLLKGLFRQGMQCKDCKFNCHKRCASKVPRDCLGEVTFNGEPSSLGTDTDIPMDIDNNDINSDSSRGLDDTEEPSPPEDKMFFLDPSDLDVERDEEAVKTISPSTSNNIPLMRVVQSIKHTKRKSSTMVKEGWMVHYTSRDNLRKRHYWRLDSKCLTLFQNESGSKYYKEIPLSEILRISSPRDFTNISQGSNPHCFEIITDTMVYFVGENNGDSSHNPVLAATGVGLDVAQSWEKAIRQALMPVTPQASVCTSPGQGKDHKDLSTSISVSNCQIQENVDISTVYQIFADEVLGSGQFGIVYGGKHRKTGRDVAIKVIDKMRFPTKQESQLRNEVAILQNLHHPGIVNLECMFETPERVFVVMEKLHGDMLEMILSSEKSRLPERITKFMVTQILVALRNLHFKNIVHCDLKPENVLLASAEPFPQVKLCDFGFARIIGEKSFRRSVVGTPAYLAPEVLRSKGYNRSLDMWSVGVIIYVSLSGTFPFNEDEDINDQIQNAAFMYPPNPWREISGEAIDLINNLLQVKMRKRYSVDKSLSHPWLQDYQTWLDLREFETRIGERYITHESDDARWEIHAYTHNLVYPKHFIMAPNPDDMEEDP

Compound: CN(C)CCOc1ccc(-c2nc(-c3ccncc3)c(-c3ccc4c(c3)CC/C4=N\O)[nH]2)cc1
- % of control [1]: 81%

- % of inhibition ([2]; at 0.01 µM): -10.8%
- % of inhibition ([2]; at 0.04 µM): 0.7%
- % of inhibition ([2]; at 0.2 µM): 12.7%
- % of inhibition ([2]; at 1 µM): 37.8%
- % of inhibition ([2]; at 5 µM): 78.5%
Compound: CC[C@@H]1[C@H](F)C(=O)N[C@@H]1COc1nccc2cc(C(N)=O)c(OC)cc12 [ZIMLOVISERTIB]

Compound: COc1cc(Nc2nc(C)cc(-c3cnn4nc(OC)ccc34)n2)cc(C(F)(F)F)c1
- % of control [3]: 100%
